Reference: patent publication US9670213B2, “Pteridine ketone derivative and applications thereof as EGFR, BLK, and FLT3 inhibitor” (EAST CHINA UNIVERSITY OF SCIENCE AND TECHNOLOGY, priority 2012, dated 2017)

Experiments:
Type in all cases: biochemical
EGFR-L858R/T790M = EGFR-L858R/T790M (Homo sapiens (Human), UniProt P00533, L858R/T790M); test: In vitro EGFR kinase activity assay (Z'-Lyte); details: read-out: Inhibitory activity on EGFR kinase (IC50, nM) T790M/L858R;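 note: Cell-free kinase reaction with peptide substrate and ATP, 1.5 h at room temperature, development cleaving unphosphorylated peptide, 10-point dilution 0.051–1000 nM, phosphopeptide as 100% phosphorylation control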
Method: Inhibitory effects in vitro of the compounds provided in the present invention on EGFR kinase activity was tested as follows:
10 concentration gradients, from 5.1×10^−11 mol/L to 1.0×10^−6 mol/L, were set for all of the compounds to be tested.
10 μL of kinase reaction system comprised 2.5 μL of compound solution, 5 μL of Kinase/peptide mixture, and 2.5 μL of ATP solution. 5 μL of phosphopeptide solution was used in place of kinase/peptide mixture as 100% phosphorylation control. […] After thoroughly mixing the solution within the plate, the plate was incubated at room temperature for 1.5 hours. 5 μL of DevelopmentSolution was added into each well, and then the plate was incubated at room temperature for another 1 hour, and non-phosphorylated peptide was cleaved within this period. Finally, the reaction was quenched by adding 5 μL of Stop Reagent. The Plate was measured with EnVision Multilabel Reader (Perkin Elmer). Experimental data were calculated by using GraphPad Prism version 4.0. Each experiment was repeated more than three times.

ABL = ABL (Homo sapiens (Human), UniProt P00519); test: Kinase selectivity analysis (Caliper mobility shift assay); details: for inhibition at 1 µM: read-out: % inhibition (1 μM), 1 μM; for inhibition at 10 µM: read-out: % inhibition (10 μM), 10 μM
Method: (§1) Kinase selectivity analysis: kinase selectivity experiment was performed by Shanghai ChemPartner using Caliper assay screening platform. All of kinases and other materials were purchased from commercial companies.
(§2) 3. Preparation of assay plate: 5 μL of solution from each well of the 96-well temporary plate was added into a 384-well plate, and the experiment was independently repeated.
(§3) 5. Caliper readings: experimental data were collected on Caliper.
(§4) 6. Curve fitting: 1) conversion data were replicated from Caliper program. 2) the conversion value was converted into inhibition rate, inhibition rate %=(maximum−conversion value)/(maximum−minimum)*100, wherein “maximum” represents DMSO control, and minimum represents the low control.

AUR B = AUR B (Homo sapiens (Human), UniProt Q96GD4); test: as above; details: for inhibition at 1 µM: read-out: % inhibition (1 μM), 1 μM; for inhibition at 10 µM: read-out: % inhibition (10 μM), 10 μM
Method: as §1, §2, §3, §4

BLK = BLK (Homo sapiens (Human), UniProt P51451); test: as above; details: for inhibition at 1 µM: read-out: % inhibition (1 μM), 1 μM; for inhibition at 10 µM: read-out: % inhibition (10 μM), 10 μM
Method: as §1, §2, §3, §4

C-MET = C-MET (Homo sapiens (Human), UniProt P08581); test: as above; details: for inhibition at 1 µM: read-out: % inhibition (1 μM), 1 μM; for inhibition at 10 µM: read-out: % inhibition (10 μM), 10 μM
Method: as §1, §2, §3, §4

CDK2 = CDK2 (Homo sapiens (Human), UniProt P24941); test: as above; details: for inhibition at 1 µM: read-out: % inhibition (1 μM), CDK2, 1 μM; for inhibition at 10 µM: read-out: % inhibition (10 μM), CDK2, 10 μM
Method: as §1, §2, §3, §4

ERK1 = ERK1 (Homo sapiens (Human), UniProt P27361); test: as above; details: for inhibition at 1 µM: read-out: % inhibition (1 μM), ERK1, 1 μM; for inhibition at 10 µM: read-out: % inhibition (10 μM), ERK1, 10 μM
Method: as §1, §2, §3, §4

FGFR1 = FGFR1 (Homo sapiens (Human), UniProt P11362); test: as above; details: for inhibition at 1 µM: read-out: % inhibition (1 μM), FGFR1, 1 μM; for inhibition at 10 µM: read-out: % inhibition (10 μM), FGFR1, 10 μM
Method: as §1, §2, §3, §4

FGFR3 = FGFR3 (Homo sapiens (Human), UniProt P22607); test: as above; details: for inhibition at 1 µM: read-out: % inhibition (1 μM), FGFR3, 1 μM; for inhibition at 10 µM: read-out: % inhibition (10 μM), FGFR3, 10 μM
Method: as §1, §2, §3, §4

FLT1 = FLT1 (Homo sapiens (Human), UniProt P17948); test: as above; details: for inhibition at 1 µM: read-out: % inhibition (1 μM), FLT1, 1 μM; for inhibition at 10 µM: read-out: % inhibition (10 μM), FLT1, 10 μM
Method: as §1, §2, §3, §4

FLT3 = FLT3 (Homo sapiens (Human), UniProt P36888); test: as above; details: for inhibition at 1 µM: read-out: % inhibition (1 μM), FLT3, 1 μM; for inhibition at 10 µM: read-out: % inhibition (10 μM), FLT3, 10 μM
Method: as §1, §2, §3, §4

GSK3b = GSK3b (Homo sapiens (Human), UniProt P49841); test: as above; details: for inhibition at 1 µM: read-out: % inhibition (1 μM), 1 μM; for inhibition at 10 µM: read-out: % inhibition (10 μM), 10 μM
Method: as §1, §2, §3, §4

HER2 = HER2 (Homo sapiens (Human), UniProt P04626); test: as above; details: for inhibition at 1 µM: read-out: % inhibition (1 μM), HER2, 1 μM; for inhibition at 10 µM: read-out: % inhibition (10 μM), HER2, 10 μM
Method: as §1, §2, §3, §4

HER4 = HER4 (Homo sapiens (Human), UniProt Q15303); test: as above; details: for inhibition at 1 µM: read-out: % inhibition (1 μM), HER4, 1 μM; for inhibition at 10 µM: read-out: % inhibition (10 μM), HER4, 10 μM
Method: as §1, §2, §3, §4

IGF1R = IGF1R (Homo sapiens (Human), UniProt P08069); test: as above; details: for inhibition at 1 µM: read-out: % inhibition (1 μM), 1 μM; for inhibition at 10 µM: read-out: % inhibition (10 μM), 10 μM
Method: as §1, §2, §3, §4

IKKB = IKKB (Homo sapiens (Human), UniProt O14920); test: as above; details: for inhibition at 1 µM: read-out: % inhibition (1 μM), 1 μM; for inhibition at 10 µM: read-out: % inhibition (10 μM), 10 μM
Method: as §1, §2, §3, §4

JAK2 = JAK2 (Homo sapiens (Human), UniProt O60674); test: as above; details: for inhibition at 1 µM: read-out: % inhibition (1 μM), JAK2, 1 μM; for inhibition at 10 µM: read-out: % inhibition (10 μM), JAK2, 10 μM
Method: as §1, §2, §3, §4

KDR = KDR (Homo sapiens (Human), UniProt P35968); test: as above; details: for inhibition at 1 µM: read-out: % inhibition (1 μM), 1 μM; for inhibition at 10 µM: read-out: % inhibition (10 μM), 10 μM
Method: as §1, §2, §3, §4

LCK = LCK (Homo sapiens (Human), UniProt P06239); test: as above; details: for inhibition at 1 µM: read-out: % inhibition (1 μM), 1 μM; for inhibition at 10 µM: read-out: % inhibition (10 μM), 10 μM
Method: as §1, §2, §3, §4

LYNA = LYNA (Homo sapiens (Human), UniProt P07948); test: as above; details: for inhibition at 1 µM: read-out: % inhibition (1 μM), 1 μM; for inhibition at 10 µM: read-out: % inhibition (10 μM), 10 μM
Method: as §1, §2, §3, §4

P38a = P38a (Homo sapiens (Human), UniProt Q16539); test: as above; details: for inhibition at 1 µM: read-out: % inhibition (1 μM), 1 μM; for inhibition at 10 µM: read-out: % inhibition (10 μM), 10 μM
Method: as §1, §2, §3, §4

PDGFRa = PDGFRa (Homo sapiens (Human), UniProt P16234); test: as above; details: for inhibition at 1 µM: read-out: % inhibition (1 μM), 1 μM; for inhibition at 10 µM: read-out: % inhibition (10 μM), 10 μM
Method: as §1, §2, §3, §4

PDGFRb = PDGFRb (Homo sapiens (Human), UniProt P09619); test: as above; details: for inhibition at 1 µM: read-out: % inhibition (1 μM), 1 μM; for inhibition at 10 µM: read-out: % inhibition (10 μM), 10 μM
Method: as §1, §2, §3, §4

PIM1 = PIM1 (Homo sapiens (Human), UniProt P11309); test: as above; details: for inhibition at 1 µM: read-out: % inhibition (1 μM), PIM1, 1 μM; for inhibition at 10 µM: read-out: % inhibition (10 μM), PIM1, 10 μM
Method: as §1, §2, §3, §4

PKACa = PKACa (Homo sapiens (Human), UniProt P17612); test: as above; details: for inhibition at 1 µM: read-out: % inhibition (1 μM), 1 μM; for inhibition at 10 µM: read-out: % inhibition (10 μM), 10 μM
Method: as §1, §2, §3, §4

SRC = SRC (Homo sapiens (Human), UniProt P12931); test: as above; details: for inhibition at 1 µM: read-out: % inhibition (1 μM), 1 μM; for inhibition at 10 µM: read-out: % inhibition (10 μM), 10 μM
Method: as §1, §2, §3, §4

cKit = cKit (Homo sapiens (Human), UniProt P10721); test: as above; details: for inhibition at 1 µM: read-out: % inhibition (1 μM), 1 μM; for inhibition at 10 µM: read-out: % inhibition (10 μM), 10 μM
Method: as §1, §2, §3, §4

Chain of FGFR1 (P11362 22-822, species assumed): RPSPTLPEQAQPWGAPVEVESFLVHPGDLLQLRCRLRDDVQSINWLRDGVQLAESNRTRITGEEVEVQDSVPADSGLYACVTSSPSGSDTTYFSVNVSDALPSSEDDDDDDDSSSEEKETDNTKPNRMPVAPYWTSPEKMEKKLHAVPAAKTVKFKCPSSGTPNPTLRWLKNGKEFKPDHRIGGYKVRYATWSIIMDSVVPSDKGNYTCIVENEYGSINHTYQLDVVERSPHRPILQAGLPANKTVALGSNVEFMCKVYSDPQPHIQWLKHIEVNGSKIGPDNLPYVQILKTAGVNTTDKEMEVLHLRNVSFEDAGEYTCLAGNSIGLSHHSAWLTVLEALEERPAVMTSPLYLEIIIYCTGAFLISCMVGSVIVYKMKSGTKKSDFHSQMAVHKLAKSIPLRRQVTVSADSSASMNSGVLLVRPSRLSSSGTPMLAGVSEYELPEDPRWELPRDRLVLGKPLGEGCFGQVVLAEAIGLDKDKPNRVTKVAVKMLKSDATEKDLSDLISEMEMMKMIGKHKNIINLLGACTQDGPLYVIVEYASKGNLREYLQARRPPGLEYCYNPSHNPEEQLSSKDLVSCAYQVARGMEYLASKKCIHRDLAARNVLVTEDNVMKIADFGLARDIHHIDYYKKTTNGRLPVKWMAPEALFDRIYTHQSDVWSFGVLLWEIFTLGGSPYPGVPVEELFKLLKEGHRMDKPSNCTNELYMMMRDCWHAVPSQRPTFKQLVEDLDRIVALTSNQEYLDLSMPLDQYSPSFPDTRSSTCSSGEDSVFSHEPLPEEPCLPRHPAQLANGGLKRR
Chain of HER4 (Q15303 26-1308, species assumed): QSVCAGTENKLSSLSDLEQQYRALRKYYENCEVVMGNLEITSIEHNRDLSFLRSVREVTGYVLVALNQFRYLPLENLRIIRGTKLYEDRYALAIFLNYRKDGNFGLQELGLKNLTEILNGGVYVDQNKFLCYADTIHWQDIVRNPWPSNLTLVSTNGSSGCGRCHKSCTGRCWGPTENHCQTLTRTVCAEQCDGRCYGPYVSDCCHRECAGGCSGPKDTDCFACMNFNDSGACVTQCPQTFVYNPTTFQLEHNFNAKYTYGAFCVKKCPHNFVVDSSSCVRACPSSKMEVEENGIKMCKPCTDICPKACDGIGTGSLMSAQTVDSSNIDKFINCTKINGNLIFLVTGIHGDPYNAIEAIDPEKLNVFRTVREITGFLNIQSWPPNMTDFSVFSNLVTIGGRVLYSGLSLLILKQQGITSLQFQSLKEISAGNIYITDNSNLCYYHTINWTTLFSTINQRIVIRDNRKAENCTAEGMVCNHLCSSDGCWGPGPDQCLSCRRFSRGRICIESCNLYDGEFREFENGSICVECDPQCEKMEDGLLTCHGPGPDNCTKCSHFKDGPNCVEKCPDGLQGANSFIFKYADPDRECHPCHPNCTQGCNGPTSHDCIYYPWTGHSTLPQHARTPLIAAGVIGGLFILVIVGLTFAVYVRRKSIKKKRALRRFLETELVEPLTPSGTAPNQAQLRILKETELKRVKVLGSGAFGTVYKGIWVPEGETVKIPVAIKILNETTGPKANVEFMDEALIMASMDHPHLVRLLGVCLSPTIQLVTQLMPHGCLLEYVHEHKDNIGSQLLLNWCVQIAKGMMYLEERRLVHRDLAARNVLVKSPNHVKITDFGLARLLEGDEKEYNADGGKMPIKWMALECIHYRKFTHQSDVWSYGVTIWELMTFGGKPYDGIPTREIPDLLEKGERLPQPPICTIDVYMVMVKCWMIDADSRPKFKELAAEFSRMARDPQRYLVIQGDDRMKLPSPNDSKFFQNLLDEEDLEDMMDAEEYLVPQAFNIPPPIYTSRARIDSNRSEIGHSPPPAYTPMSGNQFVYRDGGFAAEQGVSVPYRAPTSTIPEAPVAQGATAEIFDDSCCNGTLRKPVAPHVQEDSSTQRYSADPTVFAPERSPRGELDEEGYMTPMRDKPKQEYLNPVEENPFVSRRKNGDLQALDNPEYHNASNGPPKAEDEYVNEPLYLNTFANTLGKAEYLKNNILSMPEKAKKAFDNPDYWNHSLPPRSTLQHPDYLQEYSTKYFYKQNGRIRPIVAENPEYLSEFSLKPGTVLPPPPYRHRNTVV
Chain of FGFR3 (P22607 23-806, species assumed): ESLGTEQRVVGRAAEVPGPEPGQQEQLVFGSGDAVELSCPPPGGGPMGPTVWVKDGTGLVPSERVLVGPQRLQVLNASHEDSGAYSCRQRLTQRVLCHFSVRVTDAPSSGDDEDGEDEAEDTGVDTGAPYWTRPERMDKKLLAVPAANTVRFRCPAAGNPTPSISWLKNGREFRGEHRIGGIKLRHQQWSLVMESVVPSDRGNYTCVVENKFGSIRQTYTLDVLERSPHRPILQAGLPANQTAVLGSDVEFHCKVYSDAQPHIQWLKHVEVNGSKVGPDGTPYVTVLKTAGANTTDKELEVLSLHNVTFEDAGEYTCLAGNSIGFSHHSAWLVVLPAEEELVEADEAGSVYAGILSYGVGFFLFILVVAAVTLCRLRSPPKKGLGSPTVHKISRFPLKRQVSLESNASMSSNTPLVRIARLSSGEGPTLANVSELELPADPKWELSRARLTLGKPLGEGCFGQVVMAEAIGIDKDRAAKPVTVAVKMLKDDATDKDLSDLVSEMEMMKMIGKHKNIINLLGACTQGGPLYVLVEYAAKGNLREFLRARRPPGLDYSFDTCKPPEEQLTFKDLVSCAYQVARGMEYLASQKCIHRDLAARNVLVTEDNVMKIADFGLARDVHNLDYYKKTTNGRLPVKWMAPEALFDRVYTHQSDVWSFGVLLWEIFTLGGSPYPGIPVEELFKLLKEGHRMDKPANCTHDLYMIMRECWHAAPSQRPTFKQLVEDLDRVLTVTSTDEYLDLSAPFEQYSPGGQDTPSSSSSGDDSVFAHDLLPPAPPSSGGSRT
Chain of cKit (P10721 26-976): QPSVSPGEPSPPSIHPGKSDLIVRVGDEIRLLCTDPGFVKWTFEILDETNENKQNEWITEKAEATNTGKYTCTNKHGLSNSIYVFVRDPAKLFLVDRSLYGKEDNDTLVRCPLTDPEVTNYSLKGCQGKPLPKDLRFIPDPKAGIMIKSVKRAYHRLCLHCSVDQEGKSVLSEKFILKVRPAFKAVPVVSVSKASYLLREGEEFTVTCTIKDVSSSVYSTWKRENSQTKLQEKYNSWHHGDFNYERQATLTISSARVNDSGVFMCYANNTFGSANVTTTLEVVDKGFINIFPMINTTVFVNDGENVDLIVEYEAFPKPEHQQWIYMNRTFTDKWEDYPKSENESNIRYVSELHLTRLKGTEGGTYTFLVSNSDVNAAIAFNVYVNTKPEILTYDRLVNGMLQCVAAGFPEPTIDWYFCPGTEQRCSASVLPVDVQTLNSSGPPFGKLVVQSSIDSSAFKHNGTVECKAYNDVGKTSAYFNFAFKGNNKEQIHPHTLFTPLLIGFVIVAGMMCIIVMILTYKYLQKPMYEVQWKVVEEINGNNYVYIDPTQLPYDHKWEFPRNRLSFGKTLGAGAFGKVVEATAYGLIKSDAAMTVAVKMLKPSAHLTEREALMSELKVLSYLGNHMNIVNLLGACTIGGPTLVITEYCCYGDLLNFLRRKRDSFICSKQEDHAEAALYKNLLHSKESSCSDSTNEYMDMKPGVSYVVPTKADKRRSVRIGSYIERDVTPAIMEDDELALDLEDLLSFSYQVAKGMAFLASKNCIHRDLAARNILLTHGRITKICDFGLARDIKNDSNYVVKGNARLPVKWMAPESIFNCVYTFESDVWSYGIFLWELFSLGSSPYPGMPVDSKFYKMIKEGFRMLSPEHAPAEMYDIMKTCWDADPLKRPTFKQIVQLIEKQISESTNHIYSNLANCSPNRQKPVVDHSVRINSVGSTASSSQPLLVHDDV
Chain of JAK2 (O60674 whole entry, species assumed): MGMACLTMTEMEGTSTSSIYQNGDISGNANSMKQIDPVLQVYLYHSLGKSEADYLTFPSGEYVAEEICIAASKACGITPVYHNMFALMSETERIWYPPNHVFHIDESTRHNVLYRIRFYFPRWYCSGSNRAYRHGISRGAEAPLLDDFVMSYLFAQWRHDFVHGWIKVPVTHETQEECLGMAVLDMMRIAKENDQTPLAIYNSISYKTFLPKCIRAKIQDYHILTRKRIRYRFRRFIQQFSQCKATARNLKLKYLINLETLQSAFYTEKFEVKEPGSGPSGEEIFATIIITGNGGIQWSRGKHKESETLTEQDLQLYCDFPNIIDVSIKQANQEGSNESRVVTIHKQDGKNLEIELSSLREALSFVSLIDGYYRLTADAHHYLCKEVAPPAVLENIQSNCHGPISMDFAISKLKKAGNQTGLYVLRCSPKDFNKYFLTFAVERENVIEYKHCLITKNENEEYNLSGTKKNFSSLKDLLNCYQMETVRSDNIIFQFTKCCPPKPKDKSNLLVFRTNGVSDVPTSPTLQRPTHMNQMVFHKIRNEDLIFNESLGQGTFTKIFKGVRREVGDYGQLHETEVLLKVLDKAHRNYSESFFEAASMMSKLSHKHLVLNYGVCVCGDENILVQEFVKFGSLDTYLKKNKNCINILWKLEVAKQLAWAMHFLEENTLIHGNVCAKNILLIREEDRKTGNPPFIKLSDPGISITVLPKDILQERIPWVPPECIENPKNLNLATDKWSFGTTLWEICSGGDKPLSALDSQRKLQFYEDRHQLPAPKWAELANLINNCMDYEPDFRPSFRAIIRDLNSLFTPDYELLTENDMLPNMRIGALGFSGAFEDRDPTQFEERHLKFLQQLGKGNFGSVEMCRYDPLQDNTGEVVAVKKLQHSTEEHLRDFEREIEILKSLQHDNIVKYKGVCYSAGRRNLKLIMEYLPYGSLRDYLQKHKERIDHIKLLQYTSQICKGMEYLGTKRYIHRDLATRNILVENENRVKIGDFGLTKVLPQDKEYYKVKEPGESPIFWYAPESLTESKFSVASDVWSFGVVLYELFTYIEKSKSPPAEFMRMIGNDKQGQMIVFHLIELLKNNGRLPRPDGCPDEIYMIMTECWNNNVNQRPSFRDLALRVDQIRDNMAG

## C=CC(=O)Nc1cccc(-n2c(=O)cnc3cnc(Nc4ccc(N5CCN(C)CC5)cc4)nc32)c1 [Compound 020, N-(3-(2-(4-(4-methyl-1-piperazinyl)-phenylamino)-7-oxo-8(7H)-pteridin-yl)phenyl) acrylamide]
EGFR-L858R/T790M
  IC50: 0.824 nM
ABL
  inhibition at 1 µM: 11%
  inhibition at 10 µM: 39%
AUR B
  inhibition at 1 µM: 52%
  inhibition at 10 µM: 87%
BLK
  inhibition at 1 µM: 99%
  inhibition at 10 µM: 100%
C-MET
  inhibition at 1 µM: 27%
  inhibition at 10 µM: 53%
CDK2
  inhibition at 1 µM: 18%
  inhibition at 10 µM: 49%
ERK1
  inhibition at 1 µM: 1.3%
  inhibition at 10 µM: 19%
FGFR1
  inhibition at 1 µM: 19%
  inhibition at 10 µM: 63%
FGFR3
  inhibition at 1 µM: 14%
  inhibition at 10 µM: 33%
FLT1
  inhibition at 1 µM: 17%
  inhibition at 10 µM: 58%
FLT3
  inhibition at 1 µM: 82%
  inhibition at 10 µM: 99%
GSK3b
  inhibition at 1 µM: 16%
  inhibition at 10 µM: 34%
HER2
  inhibition at 1 µM: 97%
  inhibition at 10 µM: 98%
HER4
  inhibition at 1 µM: 60%
  inhibition at 10 µM: 72%
IGF1R
  inhibition at 1 µM: 21%
  inhibition at 10 µM: 36%
IKKB
  inhibition at 1 µM: 9.4%
  inhibition at 10 µM: 2%
JAK2
  inhibition at 1 µM: 22%
  inhibition at 10 µM: 36%
KDR
  inhibition at 1 µM: 25%
  inhibition at 10 µM: 73%
LCK
  inhibition at 1 µM: 18%
  inhibition at 10 µM: 73%
LYNA
  inhibition at 1 µM: 11%
  inhibition at 10 µM: 40%
P38a
  inhibition at 1 µM: 2.8%
  inhibition at 10 µM: 21%
PDGFRa
  inhibition at 1 µM: 4.9%
  inhibition at 10 µM: 35%
PDGFRb
  inhibition at 1 µM: 42%
  inhibition at 10 µM: 84%
PIM1
  inhibition at 1 µM: 8.2%
  inhibition at 10 µM: 54%
PKACa
  inhibition at 1 µM: 15%
  inhibition at 10 µM: 4.7%
SRC
  inhibition at 1 µM: 27%
  inhibition at 10 µM: 72%
cKit
  inhibition at 1 µM: -12%
  inhibition at 10 µM: -3.2%

## C=CC(=O)Nc1cccc(-n2c(=O)cnc3cnc(Nc4ccc(N5CCN(C)CC5)cc4OC)nc32)c1 [Compound 032, N-(3-(2-(2-methoxy-4-(4-methyl-1-piperazinyl)-phenylamino)-7-oxo-8(7H)-pteridin-yl)phenyl)acrylamide]
EGFR-L858R/T790M
  IC50: 1.17 nM
ABL
  inhibition at 1 µM: 5.8%
  inhibition at 10 µM: 13%
AUR B
  inhibition at 1 µM: 32%
  inhibition at 10 µM: 69%
BLK
  inhibition at 1 µM: 85%
  inhibition at 10 µM: 99%
C-MET
  inhibition at 1 µM: 13%
  inhibition at 10 µM: 28%
CDK2
  inhibition at 1 µM: 25%
  inhibition at 10 µM: 48%
ERK1
  inhibition at 1 µM: 11%
  inhibition at 10 µM: -4%
FGFR1
  inhibition at 1 µM: 7.9%
  inhibition at 10 µM: 42%
FGFR3
  inhibition at 1 µM: 11%
  inhibition at 10 µM: 13%
FLT1
  inhibition at 1 µM: 9.4%
  inhibition at 10 µM: 11%
FLT3
  inhibition at 1 µM: 60%
  inhibition at 10 µM: 91%
GSK3b
  inhibition at 1 µM: 12%
  inhibition at 10 µM: 16%
HER2
  inhibition at 1 µM: 89%
  inhibition at 10 µM: 100%
HER4
  inhibition at 1 µM: 60%
  inhibition at 10 µM: 77%
IGF1R
  inhibition at 1 µM: 15%
  inhibition at 10 µM: 37%
IKKB
  inhibition at 1 µM: -3.3%
  inhibition at 10 µM: -4.3%
JAK2
  inhibition at 1 µM: 9.9%
  inhibition at 10 µM: 22%
KDR
  inhibition at 1 µM: 3.8%
  inhibition at 10 µM: 29%
LCK
  inhibition at 1 µM: 14%
  inhibition at 10 µM: 54%
LYNA
  inhibition at 1 µM: 6.1%
  inhibition at 10 µM: 20%
P38a
  inhibition at 1 µM: -5.6%
  inhibition at 10 µM: 1.2%
PDGFRa
  inhibition at 1 µM: 1.2%
  inhibition at 10 µM: 18%
PDGFRb
  inhibition at 1 µM: 14%
  inhibition at 10 µM: 61%
PIM1
  inhibition at 1 µM: 2.1%
  inhibition at 10 µM: 8.9%
PKACa
  inhibition at 1 µM: 6.9%
  inhibition at 10 µM: 4%
SRC
  inhibition at 1 µM: 6.6%
  inhibition at 10 µM: 33%
cKit
  inhibition at 1 µM: -9.3%
  inhibition at 10 µM: -4.8%
